Measured values taken from patent US20260176289A1, “SMALL MOLECULE INHIBITORS OF KRAS PROTEINS” (Merck Sharp & Dohme LLC, priority 2022, published 2026).

What was measured:
Format in all cases: biochemical
[1] = biological target: T1, KRAS G12V (amino acids 1-169) (Homo sapiens, UniProt P01116, G12V); assay: SOS-catalyzed nucleotide exchange assay (Procedure B, BODIPY FL GDP displacement), KRAS G12V; conditions: read-out: KRAS G12V GNE IC50
T1 construct: made in house; host or cells: E. coli
Method: (§1) Procedure for SOS-Catalyzed Nucleotide Exchange Assay for KRAS-G12C/D/V/WT (Procedure B)
(§2) Recombinant KRAS G12C (amino acids 1-169, SEQ ID NO:9), KRAS G12D (amino acids 1-169, SEQ ID NO: 10), KRAS G12V (amino acids 1-169, SEQ ID NO: 11), KRAS WT (amino acids 1-169, SEQ ID NO:12) and SOS1 (amino acids 564-1049, SEQ ID NO: 13) proteins were expressed in E. coli and purified by affinity chromatography. To prepare each BODIPY™ FL GDP-bound KRAS protein, 50 μM KRAS proteins were incubated with 0.5 mM BODIPY™ FL GDP (Invitrogen, G22360) in a loading buffer (20 mM Tris-HCl pH 7.5, 50 mM NaCl, 1 mM DTT and 2.5 mM EDTA) for 1 hour on ice. After the incubation, MgCl2 was added to a final concentration of 10 mM, followed by an incubation at room temperature for 30 minutes. The mixtures were allowed to pass through a NAP-5 column to remove free nucleotides and purified BODIPY™ FL GDP-bound KRAS G12C, G12D, G12V and WT proteins were used for compound evaluation.
(§3) The inhibitory activity of compounds on recombinant KRAS is measured by the displacement of the bound BODIPY™ GDP. Specifically, 2.5 nM of each BODIPY™ FL GDP-bound KRAS complex was incubated with various concentrations of compound in a reaction buffer (20 mM Tris-HCl pH 7.5, 100 mM NaCl, 1 mM MgCl2, 2 mM DTT, 0.1% Tween 20) at 25° C. for 1 hour. After the incubation, recombinant SOS1 and GMPPNP (Jena Bioscience GmbH, NU-401) were added and incubated at room temperature for 30 minutes to proceed SOS1-dependent GDP-GTP exchange reaction on KRAS. Displacement of BODIPY™ FL GDP by Guanosine-5′-[(β,γ)-imido]triphosphate, Tetralithium salt (GMPPNP) was measured by calculating the ratio of fluorescence intensities of BODIPY™ FL before and after the exchange reaction. Percent Inhibition was calculated by setting the fluorescence ratio from the reaction without test compound (DMSO control) and the fluorescence ratio from the reaction without SOS1 and GMPPNP as 0% and 100% inhibition, respectively. Dose response curves were analyzed using a 4-parameter logistic model to calculate IC50 values.

[2] = biological target: T2, KRAS G12D (amino acids 1-169) (Homo sapiens, UniProt P01116, G12D); assay: SOS-catalyzed nucleotide exchange assay (Procedure B, BODIPY FL GDP displacement), KRAS G12D; conditions: read-out: KRAS G12D GNE IC50
T2 construct: made in house; host or cells: E. coli
T2 sequence (P01116 with tags, fused parts or gaps isoform P01116-2 G12D): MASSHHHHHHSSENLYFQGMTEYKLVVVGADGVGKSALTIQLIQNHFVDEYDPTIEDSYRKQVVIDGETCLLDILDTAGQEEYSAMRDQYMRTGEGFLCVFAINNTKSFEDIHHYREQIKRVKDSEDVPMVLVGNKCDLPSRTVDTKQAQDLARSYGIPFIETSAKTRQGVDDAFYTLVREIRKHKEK
Method: as §1, §2, §3

[3] = biological target: T3, KRAS G12C (amino acids 1-169) (Homo sapiens, UniProt P01116, G12C); assay: SOS-catalyzed nucleotide exchange assay (Procedure B, BODIPY FL GDP displacement), KRAS G12C; conditions: read-out: KRAS G12C GNE IC50
T3 construct: made in house; host or cells: E. coli
T3 sequence (P01116 with tags, fused parts or gaps isoform P01116-2 G12C): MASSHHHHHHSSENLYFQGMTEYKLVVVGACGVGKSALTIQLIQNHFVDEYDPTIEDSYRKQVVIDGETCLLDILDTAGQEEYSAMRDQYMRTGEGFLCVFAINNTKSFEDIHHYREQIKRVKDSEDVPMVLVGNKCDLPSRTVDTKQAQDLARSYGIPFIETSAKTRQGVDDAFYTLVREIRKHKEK
Method: as §1, §2, §3

[4] = biological target: T4, KRAS WT (amino acids 1-169) (Homo sapiens, UniProt P01116); assay: SOS-catalyzed nucleotide exchange assay (Procedure B, BODIPY FL GDP displacement), KRAS WT; conditions: read-out: KRAS WT GNE IC50
T4 construct: made in house; host or cells: E. coli
T4 sequence (P01116 with tags, fused parts or gaps isoform P01116-2): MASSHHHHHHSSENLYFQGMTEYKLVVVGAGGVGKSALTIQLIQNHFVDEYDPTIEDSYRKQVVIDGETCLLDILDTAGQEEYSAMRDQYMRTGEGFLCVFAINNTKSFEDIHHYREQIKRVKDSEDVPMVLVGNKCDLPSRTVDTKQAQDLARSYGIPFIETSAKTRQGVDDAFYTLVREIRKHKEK
Method: as §1, §2, §3

T1 sequence (P01116 with tags, fused parts or gaps isoform P01116-2 G12V): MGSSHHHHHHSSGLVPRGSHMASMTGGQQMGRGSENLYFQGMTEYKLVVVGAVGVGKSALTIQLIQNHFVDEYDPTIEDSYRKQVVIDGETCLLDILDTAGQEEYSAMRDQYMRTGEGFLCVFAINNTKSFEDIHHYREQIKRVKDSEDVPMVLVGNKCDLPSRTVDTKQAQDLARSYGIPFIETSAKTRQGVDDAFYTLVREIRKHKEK

SMILES | IC50 [1] [nM] | IC50 [2] [nM] | IC50 [3] [nM] | IC50 [4] [nM]
CC(=O)N1CC(Nc2nc(OC[C@@]34CCCN3C[C@H](F)C4)nc3sc4c(-c5c(C(F)(F)F)c(C)cc6[nH]ncc56)nccc4c23)C1 [Ex-190, 1-(3-((2-(((2R,7aS)-2-fluorotetrahydro-1H-pyr-rolizin-7a(5H)-yl)meth-oxy)-8-(6-methyl-5-(tri-fluoromethyl)-1H-indazol-4-yl)pyrido[4′,3′:4,5]thieno[2,3-d]pyrimidin-4-yl)amino)azetidin-1-yl)-ethan-1-one] | 490 | 438 | 340 | 432
Cc1cc2[nH]ncc2c(-c2nccc3c2sc2nc(OC[C@@]45CCCN4C[C@H](F)C5)nc(N4CCOCC5(CC(=O)N5)C4)c23)c1C(F)(F)F (stereo partly drawn) [Ex-194, 9-(2-(((2R,7aS)-2-fluoro-tetrahydro-1H-pyrrolizin-7a(5/7)-yl)methoxy)-8-(6-methyl-5-(trifluorometh-yl)-1H-indazol-4-yl)pyrido [4′,3′:4,5]thieno[2,3-d]pyrimidin-4-yl)-6-oxa-1,9-diazaspiro[3.6]decan-2-one] | 61.3 | 57.6 | 55.1 | 167
CO[C@]1(C)COCCN(c2nc(OC[C@@]34CCCN3C[C@H](F)C4)nc3sc4c(-c5c(C(F)(F)F)c(C)cc6[nH]ncc56)nccc4c23)C1 [Ex-203, (6S)-4-(2-(((2R,7aS)-2-fluorotetrahydro-1H-pyrrolizin-7a(5H)-yl)methoxy)-8-(6-methyl-5-(trifluoromethyl)-1H-indazol-4-yl)pyrido[4′,3′:4,5]thieno[2,3-d]pyrimidin-4-yl)-6-methoxy-6-methyl-1,4-oxazepane] | 936 | 493 | 590 | 767
C[C@H]1CN2C[C@H](F)C[C@@]2(COc2nc(N3CCOC[C@@](C)(O)C3)c3c(n2)sc2c(-c4c(C5CC5)c(Cl)cc5[nH]ncc45)nccc23)C1 [Ex-226, (6S)-4-(8-(6-chloro-5-cyclopropyl-1H-indazol-4-yl)-2-(((2R,6R,7aR)-2-fluoro-6-methyl-tetrahydro-1H-pyrrolizin-7a(5H)-yl)methoxy)pyrido [4′,3′:4,5]thieno[2,3-d]pyrimidin-4-yl)-6-methyl-1,4-oxaze-pan-6-ol] | 42.1 | 30.6 | 48 | 50.9
C[C@@]1(O)COCCN(c2nc(OC[C@@]34CCCN3C[C@H](F)C4)nc3sc4c(-c5c(-c6ccco6)c(Cl)cc6[nH]ncc56)nncc4c23)C1 [Ex-282] | 12.5 | 4.26 | 5.84 | 13.5
C#Cc1cccc2cccc(-c3nncc4c3sc3nc(OC[C@@]56CCCN5C[C@H](F)C6)nc(N5CCOC[C@@](C)(O)C5)c34)c12 [Ex-285] | 1000 | 322 | 645 | 889
Cc1cc2[nH]ncc2c(-c2nccn3c2c(C)c2nc(OC[C@@]45CCCN4C[C@H](F)C5)nc(N4CCOC[C@@](C)(O)C4)c23)c1C1CC1 [Ex-298, (S)-4-(9-(5-cyclopropyl-6-methyl-1H-indazol-4-yl)-2-(((2R,7aS)-2-fluorotetrahydro-1H-pyrrolizin-7a(5H)-yl)methoxy)-10-methylpyrazi-no[1′,2′:1,5]pyrrolo[3,2-d]pyrimidin-4-yl)-6-methyl-1,4-oxazepan-6-ol] | 159 | 49.8 | 85.2 | 113
C[C@@]1(O)COCCN(c2nc(OC[C@@]34CCCN3C[C@H](F)C4)nc3c(I)c4c(-c5c(C6CC6)c(Cl)cc6[nH]ncc56)nccn4c23)C1 [Ex-303, (S)-4-(9-(6-chloro-5-cyclopropyl-1H-indazol-4-yl)-2-(((2R,7aS)-2-fluorotetrahydro-1H-pyrrolizin-7a(5H)-yl)methoxy)-10-iodopyrazino [1′,2′:1,5]pyrrolo [3,2-d]pyrimidin-4-yl)-6-methyl-1,4-oxazepan-6-ol] | 837 | 380 | 1140 | 732
C#Cc1c(Cl)cc2[nH]ncc2c1-c1nccn2c1c(F)c1nc(OC[C@@]34CCCN3C[C@H](F)C4)nc(N3CCOC[C@@](C)(O)C3)c12 [Ex-304, (S)-4-(9-(6-chloro-5-ethynyl-1H-indazol-4-yl)-10-fluoro-2-(((2R,7aS)-2-fluorotetrahydro-1H-pyrrolizin-7a(5H)-yl)methoxy)pyrazino[1′,2′:1,5]pyrrolo[3,2-d]pyrimidin-4-yl)-6-methyl-1,4-oxazepan-6-ol] | 33.9 | 13.1 | 24.9 | 34
Cc1cc2[nH]ncc2c(-c2nccn3c2c(F)c2nc(OC[C@@]45CCCN4C[C@H](F)C5)nc(N4CCOC[C@@](C)(O)C4)c23)c1C1CC1 [Ex-306, (S)-4-(9-(5-cyclopropy1-6-methyl-1H-indazol-4-yl)-10-fluoro-2-(((2R,7aS)-2-fluorotetrahydro-1H-pyrrolizin-7a(5H)-yl)methoxy)pyrazino[1′2′:1,5]pyrrolo[3,2-d]pyrimidin-4-yl)-6-methyl-1,4-oxazepan-6-o1] | 18.9 | 4.7 | 10.8 | 16.6
